Assay [1] deals with Jurkat (clone E6-1) cells, NFAT luciferase reporter. The assay is described as follows: Jurkat Reporter Assay (NFAT Luciferase). The class given is cell-based. The settings on record: Homo sapiens.
In assay [2] the target is Recombinant human Cbl-b (aa 36-427) (Homo sapiens (Human), UniProt Q13191). The assay is described as follows: Cbl-b Biochemical Assay (TR-FRET). To be noted: read-out: TR-FRET hCbl-b IC50. The essentials: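 Two-step TR-FRET: 6 nM biotinylated Cbl-b preincubated 30-60 min with compound, then 60 min at RT with 1-2.5 nM Src-Zap70 and 0.5 mM ATP in HEPES pH 7.0 buffer, 1% DMSO. Stopped with 5 mM EDTA plus 100 nM UBE2D2-Ub-FL-BODIPY and 1 nM streptavidin-Tb, 60 min; 520 nm signal; IC50 from 4-parameter fit.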
Sequence of Recombinant human Cbl-b (aa 36-427) (Q13191 36-427): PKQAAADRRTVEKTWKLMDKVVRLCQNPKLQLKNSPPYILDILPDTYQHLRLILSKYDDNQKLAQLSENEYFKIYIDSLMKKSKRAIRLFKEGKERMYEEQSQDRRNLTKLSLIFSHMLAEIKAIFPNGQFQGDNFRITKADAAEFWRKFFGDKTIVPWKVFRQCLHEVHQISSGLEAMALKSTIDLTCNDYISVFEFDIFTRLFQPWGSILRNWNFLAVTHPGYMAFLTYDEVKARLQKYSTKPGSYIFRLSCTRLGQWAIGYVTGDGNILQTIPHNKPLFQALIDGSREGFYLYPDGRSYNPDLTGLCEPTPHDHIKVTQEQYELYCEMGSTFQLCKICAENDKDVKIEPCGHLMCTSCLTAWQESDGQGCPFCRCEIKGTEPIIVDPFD

Assay [3] concerns Phospho-Zap70 (Y-319) in Jurkat wild-type (clone E6-1) cells. As to the kind of experiment: Jurkat pZAP70 HTRF Assay. To be noted: Homo sapiens. The class given is cell-based.
The mark [4] stands for this setting: anti-CD3 stimulation, 6 hr, read-out: Jurkat NFAT EC50.
Setting [5] is: anti-CD3 5 μg/ml, 3 hr, read-out: ZAP70 Jurkat EC50.

These results are taken from US12325697B2 (Nimbus Clio, Inc., priority 2021, dated 2025).

The structures appear in SMILES notation. Read-outs that look alike come from different tables or passages of the source.

For `CCNc1cc(-c2ccc(C#N)cc2-c2nncn2C)cc(N2Cc3c(cc(C(O)CN(C)C)cc3C(F)(F)F)C2=O)n1` (centres unmarked) [AFR-7, 4-(2-{6-[2-(Dimethylamino)-1-hydroxyethyl]-1-oxo-4-(trifluoromethyl)-3H-isoindol-2-yl}-6-(ethylamino)pyridin-4-yl)-3-(4-methyl-1,2,4-triazol-3-yl) benzonitrile], the half-maximal effective concentration (EC50) in assay [1] (setting [4]) and in assay [3] (setting [5]) was less than 0.2 µM each time. In assay [2], the IC50 was not above 0.2 µM.
Regarding `Cn1cnnc1-c1ccccc1-c1cc(C2CC2)nc(N2Cc3ccc(CNCC4(O)CCC4)cc3C2=O)c1` [AEH-1, 2-{6-Cyclopropyl-4-[2-(4-methyl-1,2,4-triazol-3-yl)phenyl]pyridin-2-yl}-6-({[(1-hydroxycyclobutyl)methyl]amino}methyl)-3H-isoindol-1-one], the EC50 in assay [1] (setting [4]) and in assay [3] (setting [5]) was less than 0.2 µM in each case. The IC50 in assay [2] is not above 0.2 µM.
As to `Cn1cnnc1-c1cc(F)ccc1-c1cc(C2CC2)nc(N2Cc3ccc(CO)cc3C2=O)c1` [AGH-2, 2-{6-Cyclopropyl-4-[4-fluoro-2-(4-methyl-1,2,4-triazol-3-yl)phenyl]pyridin-2-yl}-6-(hydroxymethyl)-3H-isoindol-1-one], the EC50 in assay [1] (setting [4]) is less than 0.2 µM; in assay [3] (setting [5]) it was 1 to 10 µM. Besides, the IC50 in assay [2] was not above 0.2 µM.
Consider `Cn1cnnc1-c1cc(F)ccc1-c1cc(C2CC2)nc(N2Cc3c(cc(COCC4(O)CCC4)cc3C(F)(F)F)C2=O)c1` [AFL-2, 2-{6-Cyclopropyl-4-[4-fluoro-2-(4-methyl-1,2,4-triazol-3-yl)phenyl]pyridin-2-yl}-6-{[(1-hydroxycyclobutyl)methoxy]methyl}-4-(trifluoromethyl)-3H-isoindol-1-one], for which the EC50 in assay [1] (setting [4]) and in assay [3] (setting [5]) was less than 0.2 µM throughout. In addition, the IC50 in assay [2] is not above 0.2 µM.
As for `Cn1cnnc1-c1cc(F)ccc1-c1cc(C2CC2)nc(N2Cc3ccc(COCC4(N)CCC4)cc3C2=O)c1` [AGI-3, 6-{1[(1-Aminocyclobutyl)methoxy]methyl}-2-{6-cyclopropyl-4-[4-fluoro-2-(4-methyl-1,2,4-triazol-3-yl)phenyl]pyridin-2-yl}-3H-isoindol-1-one], the concentration giving a half-maximal response (EC50) in assay [1] (setting [4]) and in assay [3] (setting [5]) was less than 0.2 µM in each case. The IC50 in assay [2] is not above 0.2 µM.
For the compound `COc1cc2c(cc1CNCC1(O)CCC1)C(=O)N(c1cc(-c3ccccc3-c3nncn3C)cc(C3CC3)n1)C2` [AEM-9, 2-(6-Cyclopropyl-4-(2-(4-methyl-4H-1,2,4-triazol-3-yl)phenyl)pyridin-2-yl)-6-((((1-hydroxycyclobutyl)methyl)amino)methyl)-5-methoxyisoindolin-1-one], the EC50 in assay [1] (setting [4]) and in assay [3] (setting [5]) was less than 0.2 µM in each case. In addition, in assay [2], the IC50 was not above 0.2 µM.
`Cn1cnnc1-c1cc(F)ccc1-c1cccc(N2Cc3ccc(CNCC4(O)CCC4)cc3C2=O)c1` [AHA-2, 2-(4′-Fluoro-2′-(4-methyl-4H-1,2,4-triazol-3-yl)-[1,1′-biphenyl]-3-yl)-6-((((1-hydroxycyclobutyl)methyl)amino)methyl) isoindolin-1-one]: the EC50 was less than 0.2 µM in assay [1] (setting [4]) and 0.2 to 1 µM in assay [3] (setting [5]). In assay [2], the IC50 was not above 0.2 µM.
For `Cn1cnnc1-c1cc(C#N)ccc1-c1cc(C2CC2)nc(N2Cc3ccc(CNCCOC(F)(F)F)cc3C2=O)c1` [AGT-3, 4-{2-Cyclopropyl-6-[1-oxo-6-({[2-(trifluoromethoxy)ethyl]amino}methyl)-3H-isoindol-2-yl]pyridin-4-yl}-3-(4-methyl-1,2,4-triazol-3-yl)benzonitrile], the concentration giving a half-maximal response (EC50) in assay [1] (setting [4]) and in assay [3] (setting [5]) was less than 0.2 µM each time. Further, in assay [2], the IC50 was not above 0.2 µM.
Take `Cn1cnnc1-c1cc(F)ccc1-c1cc(C2CC2)nc(N2Cc3ccc(CNCC4(O)CCC4)cc3C2=O)c1` [AFH-1, 2-{6-Cyclopropyl-4-[4-fluoro-2-(4-methyl-1,2,4-triazol-3-yl)phenyl]pyridin-2-yl}-6-({[(1-hydroxycyclobutyl)methyl]amino}methyl)-3H-isoindol-1-one]: the EC50 in assay [1] (setting [4]) and in assay [3] (setting [5]) was less than 0.2 µM each time. Moreover, the IC50 in assay [2] was not above 0.2 µM.
For `CCNc1cc(-c2ccc(F)cc2-c2nncn2C)cc(N2Cc3c(cc(COCCOC)cc3C(F)(F)F)C2=O)n1`, the EC50 in assay [1] (6 h, read-out: Jurkat NFAT EC50 (μM)) is less than 0.2 µM; in assay [3] (3 h, read-out: ZAP70 Jurkat EC50 (μM)) it was 0.2 to 1 µM.
On to `Cn1cnnc1-c1cc(C#N)ccc1-c1cccc(N2Cc3c(cc(CN[C@@H]4CCC[C@@H]4O)cc3C(F)(F)F)C2=O)c1` [BE-3, 3′-(6-((((1R,2S)-2-Hydroxycyclopentyl)amino)methyl)-1-oxo-4-(trifluoromethyl)isoindolin-2-yl)-2-(4-methyl-4H-1,2,4-triazol-3-yl)-[1,1′-biphenyl]-4-carbonitrile], for which the EC50 in assay [1] (setting [4]) was less than 0.2 µM. Further, the IC50 in assay [2] was not above 0.2 µM.
Taken in the same sequence, the figures for `CCNc1cc(-c2cc(C#N)ccc2-c2nncn2C)cc(N2Cc3c(cccc3C(F)(F)F)C2=O)n1` [ADS-6, 3-[2-(Ethylamino)-6-[1-oxo-4-(trifluoromethyl)-3H-isoindol-2-yl]pyridin-4-yl]-4-(4-methyl-1,2,4-triazol-3-yl)benzonitrile] were 1 to 10 µM and not above 0.2 µM.
In the case of `Cn1cnnc1-c1ccc(C#N)cc1-c1cccc(N2Cc3c(cc(CO)cc3C(F)(F)F)C2=O)c1` [ADM-6, 3′-[6-(Hydroxymethyl)-1-oxo-4-(trifluoromethyl)-3H-isoindol-2-yl]-6-(4-methyl-1,2,4-triazol-3-yl)-[1,1′-biphenyl]-3-carbonitrile], the EC50 in assay [1] (setting [4]) lay in the range of 10 to 50 µM. Also, the IC50 in assay [2] fell in the range of 0.2 to 1 µM.
As to `CCNc1cc(-c2c(-c3nncn3C)cnn2C)cc(N2Cc3c(cc(CNCCOCCOCCOCCNC(=O)CCc4ccc5n4[B-](F)(F)[N+]4=C(C)C=C(C)C4=C5)cc3C(F)(F)F)C2=O)n1` [ADD-2, 4-{2-[(1-{2-[6-(Ethylamino)-4-[2-methyl-4-(4-methyl-1,2,4-triazol-3-yl)pyrazol-3-yl]pyridin-2-yl]-3-oxo-7-(trifluoromethyl)-1H-isoindol-5-yl}-5,8,11-trioxa-2-azatridecan-13-yl)carbamoyl]ethyl}-2,2-difluoro-10,12-dimethyl-1lambda5,3-diaza-2-boratricyclo[7.3.0.0^{3,7}]dodeca-1(12),4,6,8,10-pentaen-1-ylium-2-uide], the 50% effective concentration (EC50) in assay [1] (setting [4]) lay in the range of 10 to 50 µM. Further, the IC50 in assay [2] fell in the range of 10 to 50 µM.
On to `CCNc1cc(-c2nn(CC(C)C)cc2-c2nncn2C)cc(N2Cc3c(cccc3C(F)(F)F)C2=O)n1` [AGX-8, 2-[6-(Ethylamino)-4-[4-(4-methyl-1,2,4-triazol-3-yl)-1-(2-methylpropyl)pyrazol-3-yl]pyridin-2-yl]-4-(trifluoromethyl)-3H-isoindol-1-one], for which the EC50 in assay [1] (setting [4]) was in the range of 10 to 50 µM. In assay [2], the IC50 was 10 to 50 µM.
`Cn1cnnc1-c1ccccc1-c1cccc(N2Cc3c(cc(CO[C@@H]4CCC[C@H]4O)cc3C(F)(F)F)C2=O)c1` [ADL-4, 6-({[(1R,2R)-2-Hydroxycyclopentyl]oxy}methyl)-2-[2′-(4-methyl-1,2,4-triazol-3-yl)-[1,1′-biphenyl]-3-yl]-4-(trifluoromethyl)-3H-isoindol-1-one]: the EC50 in assay [1] (setting [4]) lay within 1 to 10 µM. For the same compound, the IC50 in assay [2] was not above 0.2 µM.
Turning to `CCNc1cc(-c2c(-c3nncn3C)cnn2C)cc(N2Cc3c(cc(CO[C@H]4CCC[C@H]4O)cc3C(F)(F)F)C2=O)n1` [ADI-1, 2-[6-(Ethylamino)-4-[2-methyl-4-(4-methyl-1,2,4-triazol-3-yl)pyrazol-3-yl]pyridin-2-yl]-6-({[(1S,2R)-2-hydroxycyclopentyl]oxy}methyl)-4-(trifluoromethyl)-3H-isoindol-1-one], in assay [1] (setting [4]), the concentration giving a half-maximal response (EC50) fell in the range of 0.2 to 1 µM. The IC50 in assay [2] is not above 0.2 µM.
Regarding `CCNc1cc(-c2c(-c3nncn3C)cnn2C)cc(N2Cc3c(cc(COCC(C)(C)O)cc3C(F)(F)F)C2=O)n1` [ADY-2, 2-[6-(Ethylamino)-4-[2-methyl-4-(4-methyl-1,2,4-triazol-3-yl)pyrazol-3-yl]pyridin-2-yl]-6-[(2-hydroxy-2-methylpropoxy)methyl]-4-(trifluoromethyl)-3H-isoindol-1-one], the EC50 in assay [1] (setting [4]) is 0.2 to 1 µM. The IC50 in assay [2] is not above 0.2 µM.
As for `CCNc1cc(-c2c(-c3nncn3C)cnn2C)cc(N2Cc3c(cc(CNCCOCCOCCOCCNC(=O)CCc4ccc5n4[B-](F)(F)[N+]4=C(c6ccc[nH]6)C=CC4=C5)cc3C(F)(F)F)C2=O)n1` [ACZ-5], the 50% effective concentration (EC50) in assay [1] (setting [4]) was in the range of 10 to 50 µM. Besides, the IC50 in assay [2] is not above 0.2 µM.
With `CCCn1cc(-c2nncn2C)c(-c2cc(NCC)nc(N3Cc4c(cccc4C(F)(F)F)C3=O)c2)n1` [AHD-9, 2-[6-(Ethylamino)-4-[4-(4-methyl-1,2,4-triazol-3-yl)-1-propylpyrazol-3-yl]pyridin-2-yl]-4-(trifluoromethyl)-3H-isoindol-1-one], the EC50 in assay [1] (setting [4]) fell in the range of 10 to 50 µM. Moreover, the concentration for half-maximal inhibition (IC50) in assay [2] was in the range of 10 to 50 µM.
`Cc1ccc2c(c1)C(=O)N(c1cc(-c3ccc(F)cc3-c3nncn3C)cc(C(C)C)n1)C2` [AFY-1, 2-(4-(4-fluoro-2-(4-methyl-4H-1,2,4-triazol-3-yl)phenyl)-6-isopropylpyridin-2-yl)-6-methylisoindolin-1-one]: the EC50 in assay [1] (setting [4]) fell in the range of 10 to 50 µM. Besides, the IC50 in assay [2] lay in the range of 1 to 10 µM.
As for `CCNc1cc(-c2ccccc2-c2nncn2C)cc(N2Cc3c(cc(CN4CC[C@@H](O)C4)cc3C(F)(F)F)C2=O)n1` [AT-1, (R)-2-(6-(Ethylamino)-4-(2-(4-methyl-4H-1,2,4-triazol-3-yl)phenyl)pyridin-2-yl)-6-((3-hydroxypyrrolidin-1-yl)methyl)-4-(trifluoromethyl)isoindolin-1-one], in assay [1] (setting [4]), the EC50 was in the range of 0.2 to 1 µM. Moreover, the IC50 in assay [2] was not above 0.2 µM.
